Laboratory results as given in ChEMBL document CHEMBL5226297, “Small-Molecule Drug Discovery in Triple Negative Breast Cancer: Current Situation and Future Directions” (J Med Chem, 2021).
Values belong to the compound of their own block, whether it stands above or below them.

What was measured:
HCC38 [1] = assay: Anticancer activity against human HCC38 cells assessed as cell growth inhibition by crystal violet staining based haemocytometer analysis; format: functional
MDA-MB-231 [2] = assay: Anticancer activity against human MDA-MB-231 cells assessed as cell growth inhibition by crystal violet staining based haemocytometer analysis; format: functional
MDA-MB-436 [3] = assay: Anticancer activity against human MDA-MB-436 cells assessed as cell growth inhibition by crystal violet staining based haemocytometer analysis; format: functional
[4] = molecular target: N-lysine methyltransferase SMYD2 (Homo sapiens, UniProt Q9NRG4); assay: Inhibition of human SMYD2 by western blot assay
HCC70 = assay: Anticancer activity against human HCC70 cells assessed as cell growth inhibition incubated up to 72 hrs by Cell-Titre Glo assay; format: functional, cell-based; details: HCC70, 72 h
MDA-MB-231 [5] = assay: Anticancer activity against human MDA-MB-231 cells assessed as cell growth inhibition incubated up to 72 hrs by Cell-Titre Glo assay; format: functional, cell-based; details: MDA-MB-231, 72 h
MDA-MB-231 [6] = assay: Anticancer activity against human MDA-MB-231 cells assessed as cell growth inhibition incubated for 24 hrs by MTT assay; format: functional, cell-based; details: MDA-MB-231, 24 h
MDA-MB-231 [7] = assay: cells; details: Homo sapiens, MDA-MB-231, 48 h
[8] = molecular target: Eukaryotic elongation factor 2 kinase (Homo sapiens, UniProt O00418); assay: Inhibition of eEF2K (unknown origin) by western blot analysis
BT-549 [9] = assay: Anticancer activity against human BT-549 cells assessed as cell growth inhibition by MTT assay; format: functional, cell-based
HCC1937 = assay: Anticancer activity against human HCC1937 cells assessed as cell growth inhibition by MTT assay; format: functional, cell-based
MDA-MB-436 [10] = assay: Anticancer activity against human MDA-MB-436 cells assessed as cell growth inhibition incubated for 24 hrs by MTT assay; format: functional, cell-based; details: MDA-MB-436, 24 h
SUM185PE = assay: Anticancer activity against human SUM185PE cells assessed as cell growth inhibition incubated for 6 days by CellTiter96 analysis; format: functional, cell-based; details: 144 h
MDA-MB-231 [11] = assay: Anticancer activity against human MDA-MB-231 cells assessed as cell growth inhibition by MTT assay; format: functional, cell-based
MDA-MB-468 [12] = assay: Anticancer activity against human MDA-MB-468 cells assessed as cell growth inhibition by MTT assay; format: functional, cell-based
MDA-MB-231 [13] = assay: cells; details: Homo sapiens
HCC38 [14] = assay: Anticancer activity against human HCC38 cells assessed as cell growth inhibition by MTT assay; format: functional, cell-based
MDA-MB-468 [15] = assay: Anticancer activity against human MDA-MB-468 cells assessed as cell growth inhibition incubated for 48 hrs by BrdU assay; format: functional, cell-based; details: MDA-MB-468, 48 h
MDA-MB-231 [16] = assay: Anticancer activity against human MDA-MB-231 cells assessed as cell growth inhibition incubated for 48 hrs by BrdU assay; format: functional, cell-based; details: MDA-MB-231, 48 h
4T1 = assay: Anticancer activity against mouse 4T1 cells assessed as cell growth inhibition by MTS assay; format: functional, cell-based
MDA-MB-468 [17] = assay: Anticancer activity against human MDA-MB-468 cells assessed as cell growth inhibition incubated for 48 hrs by MTT assay; format: functional, cell-based; details: MDA-MB-468, 48 h
MDA-MB-436 [18] = assay: Anticancer activity against human MDA-MB-436 cells assessed as cell growth inhibition incubated for 72 hrs by MTT assay; format: functional, cell-based; details: MDA-MB-436, 72 h
MDA-MB-231 [19] = assay: Anticancer activity against human MDA-MB-231 cells assessed as cell growth inhibition incubated for 72 hrs by MTT assay; format: functional, cell-based; details: MDA-MB-231, 72 h
[20] = molecular target: Dual specificity mitogen-activated protein kinase kinase 1 (Homo sapiens, UniProt Q02750); assay: Inhibition of MEK1 (unknown origin)
BT-549 [21] = assay: Anticancer activity against human BT-549 cells assessed as cell growth inhibition incubated for 24 hrs by MTT assay; format: functional, cell-based; details: BT-549, 24 h
[22] = Inhibition of ERK (unknown origin); parameters: species or system Homo sapiens

Dual specificity mitogen-activated protein kinase kinase 1, sequence (Q02750 whole entry): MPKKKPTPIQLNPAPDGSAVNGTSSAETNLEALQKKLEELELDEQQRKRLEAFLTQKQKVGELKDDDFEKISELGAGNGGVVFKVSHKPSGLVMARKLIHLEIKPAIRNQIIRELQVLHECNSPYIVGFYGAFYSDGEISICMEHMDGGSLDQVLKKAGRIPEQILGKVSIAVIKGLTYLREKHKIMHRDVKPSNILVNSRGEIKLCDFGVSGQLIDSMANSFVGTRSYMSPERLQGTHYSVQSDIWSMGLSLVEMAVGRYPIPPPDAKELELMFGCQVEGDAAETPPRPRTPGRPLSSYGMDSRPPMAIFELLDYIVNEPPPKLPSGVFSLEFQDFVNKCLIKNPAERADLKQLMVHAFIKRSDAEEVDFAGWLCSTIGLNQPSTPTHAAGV
Eukaryotic elongation factor 2 kinase, sequence (O00418 whole entry): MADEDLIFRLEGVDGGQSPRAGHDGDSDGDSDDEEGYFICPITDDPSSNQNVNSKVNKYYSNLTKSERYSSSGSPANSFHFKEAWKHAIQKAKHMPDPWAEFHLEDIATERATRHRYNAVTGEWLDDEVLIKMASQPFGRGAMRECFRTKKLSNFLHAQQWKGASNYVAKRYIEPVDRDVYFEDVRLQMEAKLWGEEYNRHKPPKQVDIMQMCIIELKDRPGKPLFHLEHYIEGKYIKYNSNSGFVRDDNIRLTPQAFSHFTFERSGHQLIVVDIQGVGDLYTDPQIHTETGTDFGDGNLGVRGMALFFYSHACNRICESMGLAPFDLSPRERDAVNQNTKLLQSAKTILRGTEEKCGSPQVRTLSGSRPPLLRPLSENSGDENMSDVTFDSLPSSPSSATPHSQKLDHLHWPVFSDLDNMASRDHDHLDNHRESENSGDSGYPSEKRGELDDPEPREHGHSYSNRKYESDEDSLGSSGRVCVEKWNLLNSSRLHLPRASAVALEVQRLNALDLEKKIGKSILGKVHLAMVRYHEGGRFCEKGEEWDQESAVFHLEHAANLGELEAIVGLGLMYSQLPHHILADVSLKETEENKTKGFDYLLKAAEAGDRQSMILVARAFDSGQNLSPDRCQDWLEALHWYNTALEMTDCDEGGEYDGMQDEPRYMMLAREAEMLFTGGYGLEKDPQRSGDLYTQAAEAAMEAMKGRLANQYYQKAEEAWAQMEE
N-lysine methyltransferase SMYD2, sequence (Q9NRG4 whole entry): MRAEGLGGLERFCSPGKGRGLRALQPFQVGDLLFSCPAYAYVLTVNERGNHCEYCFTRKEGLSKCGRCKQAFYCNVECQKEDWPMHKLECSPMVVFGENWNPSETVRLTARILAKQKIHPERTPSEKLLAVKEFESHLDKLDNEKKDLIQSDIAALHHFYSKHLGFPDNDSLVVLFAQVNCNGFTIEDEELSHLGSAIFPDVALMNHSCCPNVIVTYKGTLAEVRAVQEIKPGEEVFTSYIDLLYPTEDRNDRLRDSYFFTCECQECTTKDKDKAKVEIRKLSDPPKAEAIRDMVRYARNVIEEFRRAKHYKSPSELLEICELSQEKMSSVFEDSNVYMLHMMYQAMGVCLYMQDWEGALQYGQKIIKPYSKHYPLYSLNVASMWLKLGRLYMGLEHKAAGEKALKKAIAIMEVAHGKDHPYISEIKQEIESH

IC50 (MDA-MB-231 [5]): 3 µM
SMILES: CC(=O)O[C@@H]1[C@@H](OC(C)=O)[C@@H](O)[C@H](Oc2c(-c3ccc(O)cc3)oc3cc(O)cc(O)c3c2=O)O[C@H]1C
IC50 (HCC70): 15 µM

IC50 (MDA-MB-231 [6]): 0.3 µM
SMILES: CC(=O)N1c2ccccc2Oc2ccccc21

IC50 (MDA-MB-231 [6]): 5 µM
SMILES: C=C1[C@H]2[C@@H](/C(=C/C)C(=O)[C@H]2CC(=O)C(C)CC)[C@H](C(C)C)N[C@H]1CC(=O)/C=C(\C)CC (some centres not stated)

IC50 (BT-549 [9]): 27.5 µM | IC50 (HCC1937): 51.1 µM
SMILES: Cc1cc(C=C2C(=O)C=CC2=O)cc(C)c1O

IC50 (MDA-MB-436 [10]): 30 µM
SMILES: N[C@@H](C(=O)N[C@@H]1C(=O)N2C(C(=O)O)=C(CSc3c[nH]nn3)CS[C@H]12)c1ccc(O)cc1 [CEFATRIZINE]

IC50 (MDA-MB-231 [11]): 81.9 µM
SMILES: O=C(/C=C/c1ccc(O)c(O)c1)O[C@@H]1C[C@](OC(=O)/C=C/c2ccc(O)c(O)c2)(C(=O)O)C[C@@H](O)[C@H]1O [1,5-O-TRANS-DICAFFEOYLQUINIC ACID]

IC50 (4T1): 0.25 µM
SMILES: CCN(CC)C(=S)SSC(=S)N(CC)CC

IC50 (MDA-MB-436 [18]): 3.04 µM | IC50 (MDA-MB-231 [19]): 3.21 µM
SMILES: C=C1C(=O)O[C@@H]2/C=C(\C)[C@@H](O)C/C=C(/C)C[C@@H](OC(=O)/C(C)=C/CO)[C@@H]12

IC50 (MDA-MB-436 [10]): 11.8 µM | IC50 (BT-549 [21]): 9.63 µM | IC50 (MDA-MB-231 [6]): 12.1 µM
SMILES: C=C1C(=O)O[C@]2(C)CC[C@H](CBr)[C@]12O

IC50 [22]: 5 µM
SMILES: Clc1cc(Cl)cc(C(Cn2ccnc2)OCc2nc3ccccc3s2)c1 (configuration not stated)

Second part, the compound before the results:

SMILES: CC(=O)c1c(C)c2cnc(Nc3ccc(N4CCNCC4)cn3)nc2n(C2CCCC2)c1=O [PALBOCICLIB]
EC50 (HCC38 [1]): 1.4 µM | EC50 (MDA-MB-231 [2]): 0.3 µM | EC50 (MDA-MB-436 [3]): 5 µM

SMILES: O=C1COc2c(CCNCCN(C(=O)CCNCCc3ccc(Cl)c(Cl)c3)C3CCCCC3)ccc(O)c2N1
IC50 [4]: 20 µM

SMILES: C=C(C)[C@@H]1CCC(C)=C[C@H]1c1c(O)cc(CCCCC)cc1O [CANNABIDIOL]
IC50 (MDA-MB-231 [7]): 6 µM

SMILES: OC[C@H]1O[C@@H](OCCc2ccc(O)cc2)[C@H](O)[C@@H](O)[C@@H]1O [SALIDROSIDE]
IC50 (MDA-MB-231 [6]): 40 µM

SMILES: CC1=CC(=O)C(C(C)C)=CC1=O [THYMOQUINONE]
IC50 [8]: 8.2 µM

SMILES: CCN(CC)CCCCNc1ncc2cc(-c3cc(OC)cc(OC)c3)c(NC(=O)NC(C)(C)C)nc2n1 [PD-173074]
IC50 (SUM185PE): 0.02 µM

SMILES: O=C(NC[C@H](O)CN1CCc2ccccc2C1)c1cc(NC2COC2)ncn1
IC50 (MDA-MB-468 [12]): 1 µM | IC50 (MDA-MB-231 [13]): 60 µM | IC50 (HCC38 [14]): 5 µM

SMILES: CC(C)CC[C@@H]1NC(=O)[C@]2(C)CCCN2C1=O
IC50 (MDA-MB-468 [15]): 67.4 µM | IC50 (MDA-MB-231 [16]): 73.4 µM

SMILES: Cc1c(-c2ccc(O)cc2)n(Cc2ccc(OCCN3CCCCCC3)cc2)c2ccc(O)cc12 [BAZEDOXIFENE]
IC50 (MDA-MB-468 [17]): 3.14 µM | IC50 (MDA-MB-231 [7]): 7.45 µM

SMILES: O=C(c1ccc(F)c(F)c1Nc1ccc(I)cc1F)N1CC(O)([C@@H]2CCCCN2)C1 [COBIMETINIB]
IC50 [20]: 4.2 µM

SMILES: C=C1C(=O)O[C@@H]2C[C@@]3(C)CCC[C@H](C)C3=C[C@H]12 [HELENINE]
IC50 (MDA-MB-231 [6]): 15 µM
